Data published in patent US20200325449A1, “COMPLEMENT INHIBITION FOR IMPROVING CELL VIABILITY” (THE CLEVELAND CLINIC FOUNDATION, priority 2016, published 2020).
Entries after “also recorded” stand apart in the source; their conditions may differ.

Experiments:
[1] = target: T1, C3aR on neutrophils (Homo sapiens, UniProt Q16581); assay: Neutrophil- and NHS-mediated MSC damage assay with C3aR antagonist; type: cell-based; conditions: HL60-derived neutrophils plus 30% NHS; antagonist alone, 10 μM
T1 construct: endogenous in cells; host or cells: human neutrophils from donor blood or differentiated from HL-60 cells
T1 sequence (Q16581 1-482): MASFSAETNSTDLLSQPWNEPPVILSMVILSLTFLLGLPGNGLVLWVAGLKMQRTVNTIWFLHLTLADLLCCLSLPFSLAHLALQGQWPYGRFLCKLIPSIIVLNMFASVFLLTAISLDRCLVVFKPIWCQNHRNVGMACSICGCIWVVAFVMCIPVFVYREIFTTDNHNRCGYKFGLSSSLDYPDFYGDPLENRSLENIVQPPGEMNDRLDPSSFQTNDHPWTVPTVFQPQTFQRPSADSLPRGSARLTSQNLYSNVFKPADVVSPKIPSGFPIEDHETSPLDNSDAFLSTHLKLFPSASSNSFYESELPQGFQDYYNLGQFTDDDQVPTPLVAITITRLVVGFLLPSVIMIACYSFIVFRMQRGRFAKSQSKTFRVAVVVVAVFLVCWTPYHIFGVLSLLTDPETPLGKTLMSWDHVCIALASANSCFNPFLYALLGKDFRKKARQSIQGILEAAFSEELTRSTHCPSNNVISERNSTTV
Method: Neutrophil-mediated MSC damage assay. Human neutrophils, either purified from healthy donor peripheral blood mononuclear cells (PBMCs) by Ficoll centrifugation (provided by the Hematopoietic Stem Cells Core Facility at Case Western Reserve University) or differentiated from the neutrophil progenitor cell line HL-60 (ATCC), were used. Collins et al., Proc Natl Acad Sci USA. 1978; 75:2458-62. In some experiments, neutrophil-mediated MSC damage was assessed using a similar BCECF-based assay to that already described. In brief, 2×10^4 MSCs were labeled with BCECF-AM as described above, then, after washing, the labeled MSC were incubated for 30 min at 37° C. with different numbers of neutrophils in the presence or absence of 30% NHS in 100 μl of GVB++ buffer with various concentrations of the neutrophil function inhibitor wortmannin that inhibits oxidative burst (Sue-A-Quan et al., Journal of cellular physiology. 1997; 172:94-108) (Cayman Chemical, Ann Arbor, Mich.) and released BCECF in the supernatants was measured as described. The percentage BCECF release (cell injury) was calculated as above. […]

[2] = test system: human IgGs and IgMs on MSCs; assay: MSC serum immunoglobulin binding assay; type: cell-based; conditions: MSCs cultured with Neu5AC, then pooled normal human serum
Method: MSC serum immunoglobulin binding assay. MSCs (0.5×10^6) cultured in the presence or absence of 3 mM of Neu5AC for a week were incubated for 30 min on ice with 30% pooled normal human serum in PBS. After washing, the cells were stained for cell surface-bound human IgGs and IgMs with 2 μg/ml of anti-human IgG or anti-human IgM antibodies (Jackson ImmunoResearch Laboratories, West Grove, Pa.) and examined by flow cytometry.

[3] = test system: MSCs; assay: In vitro damage of MSCs (BCECF release) after contact with serum; type: cell-based; conditions: MSCs cultured with Neu5AC (lower Neu5GC levels) vs without; 20% or 30% normal human serum
Method: Measurement of in vitro damage of MSCs. An established fluorescence dye release assay was used to assess MSC injury after contact with serum. In brief, 2×10^5 heparin-painted or mock-painted MSCs were first loaded by incubation for 30 min at 37° C. with 5 μM 2′,7′-bis-(2-carboxyethyl)-5-(and-6)-carboxyfluorescein acetoxymethyl ester (BCECF-AM) (Thermo Fisher Scientific™, Grand Island, N.Y.). After 3 washes, the BCECF-loaded MSCs were incubated for 30 min at 37° C. with 20 or 30% normal human serum in 100 μL of GVB++, then the cells were removed by centrifugation and released BCECF in the supernatant measured on a SpectraMax Gemini XS (Molecular Devices, Sunnyvale, Calif.) with excitation and emission wavelengths, respectively, of 485 nm and 538 nm. The MSC damage (percentage of BCECF release) was calculated as ([A−B]/[C−B])×100%, where A represents the mean experimental BCECF release, B the mean spontaneous BCECF release, and C the mean maximum BCECF release induced by incubating the cells with 0.1% Triton-X100.

[4] = test system: Neu5GC on MSCs; assay: Neu5GC detection on MSCs; type: cell-based, human; conditions: MSCs cultured 7 days with Neu5AC in complete medium vs without
Method: Neu5GC detection on MSCs. This was performed as described previously by Ghaderi et al. In brief, after blocking with a 0.5% solution of fish skin gelatin (Sigma-Aldrich, St. Louis, Mo.), MSCs were incubated for 30 min on ice with 5 μg/ml of chicken anti-Neu5GC IgY or control IgY, then were washed, stained with 5 μg/ml of fluorescein isothiocyanate (FITC)-labeled anti-IgY antibody (Jackson ImmunoResearch Laboratories, West Grove, Pa.), and analyzed on a flow cytometer (BD FACSCalibur, San Jose, Calif.).

[5] = test system: MSCs; assay: In vivo damage of MSCs (BCECF release in plasma); design: species or system mice; conditions: BCECF-labeled MSCs infused via tail vein 10 min after s.c. heparin vs saline
Method: Measurement of in vivo damage of MSCs. In vivo MSC damage after infusion was also examined using a BCECF release assay. In brief, each mouse was injected subcutaneously with 500 U of heparin in saline or saline alone, then 1×10^6 MSCs labeled with BCECF were injected by the tail vein, then blood samples were collected after 0, 20, 40, and 60 min and released BCECF in the plasma measured on a SpectraMax Gemini XS (Molecular Devices, Sunnyvale, Calif.) as above.
To evaluate in vivo damage to MSCs with or without heparin painting, 0.5×10^6 heparin-painted or mock-painted MSCs were labeled with BCECF, then injected into the tail vein and blood sample collected and the plasma assayed for levels of released BCECF as above.

[6] = test system: complement alternative pathway; assay: Complement alternative pathway activation ex vivo assay (zymosan C3b deposition); type: in vivo; conditions: plasma of WT C57BL/6 mice 30 min after s.c. heparin 20 U/mouse vs saline
Method: (§1) Complement alternative pathway and classical pathway activation ex vivo assays. Mice were injected subcutaneously (s.c.) with 20 U of heparin (MP Biomedicals, Solon, Ohio) in saline or saline alone, then blood samples were collected 30 min later and immediately centrifuged for 5 min at 4° C. to collect the plasma. The activity of the complement alternative pathway was assessed using a zymosan C3b deposition assay and complement classical pathway activity was measured using an antibody-sensitized sheep erythrocytes (EshA) C3b deposition assay.

[7] = test system: complement classical pathway; assay: Complement classical pathway activation ex vivo assay (EshA C3b deposition); type: in vivo; conditions: plasma of WT C57BL/6 mice 30 min after s.c. heparin 20 U/mouse vs saline
Method: as §1

[8] = test system: neutrophils; conditions: Ehrengruber et al. 1994; cited from earlier work
[9] = test system: primary neutrophils; assay: Primary neutrophil-mediated MSC damage with purified C5a; type: cell-based; conditions: purified human C5a 50 ng/ml, no NHS, 4 h
Method: Neutrophil-mediated MSC damage assay. Human neutrophils, either purified from healthy donor peripheral blood mononuclear cells (PBMCs) by Ficoll centrifugation (provided by the Hematopoietic Stem Cells Core Facility at Case Western Reserve University) or differentiated from the neutrophil progenitor cell line HL-60 (ATCC), were used. Collins et al., Proc Natl Acad Sci USA. 1978; 75:2458-62. In some experiments, neutrophil-mediated MSC damage was assessed using a similar BCECF-based assay to that already described. In brief, 2×10^4 MSCs were labeled with BCECF-AM as described above, then, after washing, […] neutrophils in the presence or absence of 30% NHS in 100 μl of GVB++ buffer with various concentrations of the neutrophil function inhibitor wortmannin that inhibits oxidative burst (Sue-A-Quan et al., Journal of cellular physiology. 1997; 172:94-108) (Cayman Chemical, Ann Arbor, Mich.) and released BCECF in the supernatants was measured as described. The percentage BCECF release (cell injury) was calculated as above. In some experiments, a C5aR antagonist (JPE1375, Calbiochem, Billerica, Mass.)[27] or a C3aR antagonist (SB 290157, Calbiochem, Billerica, Mass.)[28] were added, both at […], to assess the role of C3aR and C5aR on neutrophils, while, in other experiments, NHS was omitted and 50 ng/ml of purified C5a (Complement technology Inc, Tyler, Tex.) added instead.

## NC(N)=NCCC[C@H](NC(=O)COCC(c1ccccc1)c1ccccc1)C(=O)O [C3aR antagonist]
[1]
  neutrophil-mediated MSC damage (BCECF release): no appreciable effect

## CC(=O)N[C@H]1[C@H]([C@H](O)[C@H](O)CO)OC(O)(C(=O)O)C[C@@H]1O (stereo partly drawn) [Neu5AC, N-acetylneuraminic acid]
[2]
  amount of bound IgM and IgG on MSCs: decrease
[3]
  complement-mediated MSC injury: less complement-mediated injury; also recorded: moderate reduction
[4]
  Neu5GC levels on the MSC surface: significantly reduced

## heparin
[5]
  in vivo MSC cell damage (released BCECF in the plasma): protected
[6]
  C3 deposition on the surface of zymosan (alternative pathway): markedly reduced
[7]
  C3 deposition on the surface of EshA (classical pathway): markedly reduced

B1: C5a: purified human C5a, anaphylatoxin (Complement technology Inc) (protein, UniProt P01031 678-751, looked up)
C5a anaphylatoxin: TLQKKIEEIAAKYKHSVVKKCCYDGACVNNDETCEQRAARISLGPRCIKAFTECCVVASQLRANISHKDMQLGR
modifications: C5a anaphylatoxin
[8]
  potency in activating neutrophils relative to C3a: 50-100 times
[9]
  MSC damage by primary neutrophils: significant MSC damage
